The source of these data is patent publication US5578479A, “Alpha-amylase from hyperthermophilic archaebacterium” (The Johns Hopkins University, priority 1992, dated 1996).

Where a name gives a salt, the structure may show the parent alone.

For assay [1], the target named is T1, Pyrococcus furiosus α-amylase, purified, wild type, SEQ ID NO:1 (Pyrococcus furiosus, UniProt P49067).
T1 construct: made in house; host or cells: Pyrococcus furiosus DSM 3638, native cells (not recombinant); cytosolic fraction, three ion exchange steps and electroelution
T1 sequence (P49067 2-649): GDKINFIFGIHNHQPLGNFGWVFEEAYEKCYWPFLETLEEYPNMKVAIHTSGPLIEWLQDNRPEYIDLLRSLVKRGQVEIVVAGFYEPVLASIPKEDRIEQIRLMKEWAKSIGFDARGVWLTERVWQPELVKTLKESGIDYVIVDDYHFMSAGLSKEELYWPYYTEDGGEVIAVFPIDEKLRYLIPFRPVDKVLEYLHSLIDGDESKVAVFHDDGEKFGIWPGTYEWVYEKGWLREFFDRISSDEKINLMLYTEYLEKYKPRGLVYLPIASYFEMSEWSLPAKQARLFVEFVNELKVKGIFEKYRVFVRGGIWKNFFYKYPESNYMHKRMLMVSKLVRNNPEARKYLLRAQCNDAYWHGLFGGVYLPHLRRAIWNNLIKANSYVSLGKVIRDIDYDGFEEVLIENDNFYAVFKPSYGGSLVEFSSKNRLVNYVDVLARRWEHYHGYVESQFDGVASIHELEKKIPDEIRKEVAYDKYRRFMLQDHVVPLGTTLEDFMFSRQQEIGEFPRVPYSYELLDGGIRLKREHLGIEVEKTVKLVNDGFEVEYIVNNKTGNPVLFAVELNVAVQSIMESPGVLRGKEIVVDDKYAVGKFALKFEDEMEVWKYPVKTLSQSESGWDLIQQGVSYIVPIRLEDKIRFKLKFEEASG
As to the kind of experiment: standard activity assay in the presence of denaturants. The assay is classed as biochemical. The settings on record: reagent present at 1M, 98° C. On the procedure:
The dextrinizing activity of the α-amylase was determined using a modification of the assay of Manning and Campbell (Manning et al, J. Biological Chem. 236(11):2952-2957 (1961)). To 20 μl of sample were added 20 μl of 1% soluble starch and 20 μl of 100 mM sodium phosphate, pH 7.0. Controls were prepared using an equal volume of the appropriate buffer in place of the enzyme solution. The samples were incubated at 92° C. for 10 minutes and the reaction terminated by cooling in ice water. Color was developed by the addition of 15 μl of an iodine solution (4% KI, 1.25% I). An additional 1 ml of distilled water was added to each sample to dilute the color of the sample to a measurable range. The absorbance was read at 600 nm with a Pharmacia LB Ultraspec III Spectrophotometer. One unit of α-amylase activity was defined as the amount of protein which hydrolyzed 1 mg of starch per minute.
The extent of activity loss induced by the denaturants, urea and guanidine HCl, was determined using a standard activity assay in which the above-mentioned reagents were present in 1M concentrations. At 98° C. the residual activity in the presence of these denaturants was 86.5% and 73% for urea and guanidine HCl, respectively.

Assay [2] deals with T1, Pyrococcus furiosus α-amylase, purified, wild type, SEQ ID NO:1. As to the kind of experiment: activity stained native-PAGE after heating samples with additive. The assay is classed as biochemical. The settings on record: sample heated 15 minutes.
Procedure: Samples were heated 15 min in the following: Lane 1, 100 mM sodium phosphate pH 7.0; Lane 2, 5 mM EDTA; Lane 3, % SDS; Lane 4, 12% β-mercaptoethanol. The samples were run on a native gel (8% acrylamide), containing 0.02% starch, and stained as described in the Examples.
Activity staining was accomplished by the incorporation of starch into the acrylamide matrix of the resolving gel. When preparing the gels, as described above, 0.05% soluble starch was used in place of distilled water when the gels were cast. To observe the thermophilic amylase activity following electrophoresis the spacers and the gel left between the glass plates were sealed with Saran Wrap to prevent dessication. The gel, between the plates, was then incubated for 30 minutes at 98° C., then stained with iodine solution (see above). […] Following this procedure it was still possible to stain the gel with Coomassie blue to visualize the proteins within the gel.
To determine the effect of denaturants and metal ions on the activity of P. furiosus α-amylase activity, stained native-PAGE or in vitro activity assays were utilized.

Take `N=C(N)N` [guanidine HCl]: the “residual activity in the presence of denaturant” value in assay [1] came out at 73%.

Take `OCCS` [β-mercaptoethanol]: the “effect on activity (activity stained native-PAGE)” value in assay [2] (2% β-mercaptoethanol) is “no significant effect on activity”.

Take `O=C(O)CN(CCN(CC(=O)O)CC(=O)O)CC(=O)O` [EDTA]: the “effect on activity (activity stained native-PAGE)” value in assay [2] (5 mM EDTA) was “no significant effect on activity”.

As to `NC(N)=O` [urea], in assay [1], the “residual activity in the presence of denaturant” value came to 86.5%.
